Where two headings read alike, the source gives them in different places.

One test concerns the target T1, canine TRPM8 (Canis lupus familiaris, UniProt Q1A7N1).
T1 construct: expressed in transfected cells
Briefly: In vitro canine TRPM8 functional assay (Ca2+-sensitive dye, FLIPR/FDSS, icilin activation). It is filed as cell-based. To be noted: HEK293 cells expressing canine TRPM8, icilin activation; for inhibition at 0.5 µM: HEK293, 0.5 μM compound, read-out: % I (0.5 μM); for IC50: eight-point dose-response, read-out: IC50. The gist of the method: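 HEK293 cells stably expressing canine TRPM8, loaded with Calcium 3 dye, preincubated with compound for 5 min before icilin at a concentration giving ~80% maximal response. Ca2+ fluorescence by FLIPR or FDSS; basal-subtracted, normalized to % maximal response, quadruplicate wells, sigmoidal fit for EC50/IC50.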

In a further test the test system is Sprague-Dawley rats. Briefly: CFA-induced paw radiant heat hypersensitivity. The following applies: po, rat; for inhibition in vivo at 30 mg/kg: 30 mg/kg p.o., read-out: % Reversal. It is filed as in vivo, rat.
For another test, the system named is Male Sprague Dawley rats. Briefly: Inhibition of icilin-induced wet-dog shakes in rats. The format is in vivo. The following applies: rat, 15′ pre icilin.
A further test has as its system Male Sprague-Dawley rats. Briefly: Cold pressor test in anesthetized rat. It is filed as in vivo. To be noted: 6 mg/kg i.v., time 10′, mean arterial pressure change on forelimb ice. As to the method:
Compounds of Formula (I) can be tested in animals and humans for their ability to mitigate cardiovascular pressor responses evoked by cold exposure. The clinical cold pressor test assesses changes in blood pressure (BP) and cold pain perception during a 2-3 minute immersion of one hand into ice water. This test may be utilized to characterize analgesic compounds (Koltzenberg M et al. Pain. 2006, 126(1-3): 165-74) and to assess cold hypersensitivity (Desmeules J A et al. Arthritis Rheum. 2003, 48(5): 1420-9). A compound of Formula (I) was studied in an anesthetized rat cold pressor paradigm to determine whether TRPM8 antagonism would interfere with the blood pressure pressor response to cold stimulation of the forepaws. Male Sprague-Dawley rats (300-450 g) anesthetized with sodium pentobarbital were instrumented with a jugular catheter and an indwelling carotid artery pressure transducer. Vehicle (10% Solutol in water) or test compound was infused (1 mL/kg) over one minute through the intravenous catheter. […] Percent changes in mean arterial pressure in response to this cold stimulus were calculated for vehicle and test compound pretreatments. Percent inhibition attributed to treatment with test compound was then determined using the following formula: % Inhibition=[1−(cold evoked % change in BP post-test compound/cold evoked % change in BP post-vehicle)]×100.

In another test the test system is mice. Briefly: CFA-induced paw cold hypersensitivity (acetone-evoked paw licking). It is filed as in vivo. To be noted: mouse; 60 mg/kg p.o.; time 30′; acetone licking duration vs vehicle. The method, then:
Prior to intraplantar CFA injection mice were placed individually in elevated observation chambers having wire mesh floors. Through the mesh floor a series of three applications of acetone (0.04 mL/application) was sprayed onto the bottom of the paw using a multidose syringe device. A positive response took the form of an abrupt withdrawal and licking of the paw. The cumulative duration of licking was recorded for each of the three trials which were then averaged to give the individual's response. Twenty-four hours following CFA injection acetone licking durations were markedly elevated implying a hypersensitivity to cooling. A test compound of Formula (I) was assessed for its ability to return acetone-evoked paw licking durations to pre-CFA levels (typically near zero) following systemic administration. Percent inhibition was calculated % inhibition=[1−(treatment licking duration/vehicle licking duration)]×100.

T1 sequence (Q1A7N1 1-1104): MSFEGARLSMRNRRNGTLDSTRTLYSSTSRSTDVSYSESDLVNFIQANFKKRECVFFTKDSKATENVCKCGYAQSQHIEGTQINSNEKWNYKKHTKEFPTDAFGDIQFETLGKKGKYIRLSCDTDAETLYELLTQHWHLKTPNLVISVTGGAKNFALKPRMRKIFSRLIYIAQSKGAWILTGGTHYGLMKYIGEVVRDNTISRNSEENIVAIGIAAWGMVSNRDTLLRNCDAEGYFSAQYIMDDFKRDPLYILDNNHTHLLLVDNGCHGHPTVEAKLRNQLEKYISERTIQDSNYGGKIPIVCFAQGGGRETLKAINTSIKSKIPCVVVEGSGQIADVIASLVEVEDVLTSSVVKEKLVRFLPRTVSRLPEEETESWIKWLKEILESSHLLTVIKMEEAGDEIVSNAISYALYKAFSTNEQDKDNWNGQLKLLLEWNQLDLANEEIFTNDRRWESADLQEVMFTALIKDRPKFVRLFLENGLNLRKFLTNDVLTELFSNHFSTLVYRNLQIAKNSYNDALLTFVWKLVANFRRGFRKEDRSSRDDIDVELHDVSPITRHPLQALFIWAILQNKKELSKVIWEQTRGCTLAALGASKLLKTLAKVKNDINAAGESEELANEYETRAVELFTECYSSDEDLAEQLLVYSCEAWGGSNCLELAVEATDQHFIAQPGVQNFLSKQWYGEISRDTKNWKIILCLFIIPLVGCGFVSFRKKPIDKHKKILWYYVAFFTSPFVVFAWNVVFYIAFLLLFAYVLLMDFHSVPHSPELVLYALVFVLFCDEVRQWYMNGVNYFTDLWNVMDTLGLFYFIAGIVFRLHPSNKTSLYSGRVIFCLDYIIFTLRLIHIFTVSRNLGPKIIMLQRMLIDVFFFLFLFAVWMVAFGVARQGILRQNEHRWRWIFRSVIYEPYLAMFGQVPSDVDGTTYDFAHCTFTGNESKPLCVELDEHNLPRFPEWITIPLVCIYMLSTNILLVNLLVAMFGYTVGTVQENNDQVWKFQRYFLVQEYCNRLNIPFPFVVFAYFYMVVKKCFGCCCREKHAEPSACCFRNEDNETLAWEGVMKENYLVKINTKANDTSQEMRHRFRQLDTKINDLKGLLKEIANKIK

Usually IC50 stands for the concentration that gives 50% inhibition. What is called ED50 is the dose that gives a 50% effect, or the effect in half of the subjects. What is called % Inhibition is the change of the read-out against control, counted positive when it falls. Read a high % Inhibition as a response far below the control. For the compound `CC(C)OP(=O)(OC(C)C)[C@@H](Cc1ccc(F)c(F)c1)c1sc2ccccc2c1Br` [Cpd 234, (S)-[1-(3-Bromo-benzo[b]thiophen-2-yl)-2-(3,4-difluoro-phenyl)-ethyl]-phosphonic acid diisopropyl ester], the inhibition at 0.5 µM at canine TRPM8 was 104%. The IC50 at canine TRPM8 came to 29 nM. In addition, the results for the inhibition in vivo at 30 mg/kg in the test on Sprague-Dawley rats (time 1 h) and with Sprague-Dawley rats (time 2 h (printed 2 h or 2)) were 75% and 56%, respectively. The ED50 with Sprague-Dawley rats (p.o., read-out: ED50) amounted to 6.6 mg/kg; with Male Sprague Dawley rats (po), 24.3 mg/kg. Besides, the “% Inhibition” value came out at 14.2% in the test with Male Sprague Dawley rats (10 mg/kg p.o.), 68.0% in the test with Male Sprague Dawley rats (30 mg/kg p.o.) and 92.9% in the test with Male Sprague Dawley rats (100 mg/kg p.o.).

For the compound `CC(C)OP(=O)(OC(C)C)[C@@H](Cc1ccc(F)c(C(F)(F)F)c1)c1sc2ccccc2c1Br` [Cpd 242, (S)-[1-(3-Bromo-benzo[b]thiophen-2-yl)-2-(4-fluoro-3-trifluoromethyl-phenyl)-ethyl]-phosphonic acid diisopropyl ester], on canine TRPM8, the inhibition at 0.5 µM was 103% and the IC50 was found to be 9 nM. Further, the “% I (inhibition of cold-induced pressor response)” value with Male Sprague-Dawley rats is recorded as 54%. For the same compound, the “% I” value in the test on mice came to 84%.
